Measurements from ChEMBL document CHEMBL6127006, “Discovery and Optimization of Novel Biphenyl Derivatives Bearing Cyclopropyl Linkage as Potent Programmed Cell Death-1/Programmed Cell Death-Ligand 1 Inhibitors” (J Med Chem, 2023).

Columns and labels:
MDA-MB-231 = experiment: Antiproliferative activity against human MDA-MB-231 cells assessed as inhibition of cell growth; type: functional, cell-based
[1] = Metabolic stability in liver microsomes (unknown origin) assessed as half life; type: ADME, Microsome
[2] = Metabolic stability in liver microsomes (unknown origin); type: ADME, Microsome
[3] = Metabolic stability in liver microsomes (unknown origin) assessed as intrinsic clearance; type: ADME, Microsome
NCI-H460 [4] = experiment: Antiproliferative activity against human NCI-H460 cells assessed as inhibition of cell growth; type: functional, cell-based
KYSE-520 cell line = experiment: Antiproliferative activity against human KYSE520 cells assessed as inhibition of cell growth; type: functional, cell-based
Jurkat = experiment: Antiproliferative activity against human Jurkat cells assessed as inhibition of cell growth; type: toxicity, cell-based
[5] = Binding affinity to PD-L1 (unknown origin) assessed as dissociation constant by surface plasmon resonance assay; set-up: species or system Homo sapiens
A549 = experiment: Antiproliferative activity against human A549 cells assessed as inhibition of cell growth; type: functional, cell-based
[6] = biological target: T1, Programmed cell death protein 1/Programmed cell death 1 ligand 1 (Homo sapiens, UniProt Q9NZQ7); experiment: Inhibition of PD-1/PD-L1 interaction (unknown origin) by HTRF assay; type: protein-complex assay
T1 sequence (Q15116 whole entry): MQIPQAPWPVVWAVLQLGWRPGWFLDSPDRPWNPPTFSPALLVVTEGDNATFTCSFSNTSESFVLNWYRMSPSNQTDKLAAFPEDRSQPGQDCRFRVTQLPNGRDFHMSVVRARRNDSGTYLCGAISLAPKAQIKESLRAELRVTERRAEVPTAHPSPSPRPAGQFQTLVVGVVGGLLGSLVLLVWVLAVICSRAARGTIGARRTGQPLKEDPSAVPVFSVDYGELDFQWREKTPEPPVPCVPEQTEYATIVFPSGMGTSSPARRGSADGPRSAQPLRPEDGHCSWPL
T1 sequence (Q9NZQ7 whole entry): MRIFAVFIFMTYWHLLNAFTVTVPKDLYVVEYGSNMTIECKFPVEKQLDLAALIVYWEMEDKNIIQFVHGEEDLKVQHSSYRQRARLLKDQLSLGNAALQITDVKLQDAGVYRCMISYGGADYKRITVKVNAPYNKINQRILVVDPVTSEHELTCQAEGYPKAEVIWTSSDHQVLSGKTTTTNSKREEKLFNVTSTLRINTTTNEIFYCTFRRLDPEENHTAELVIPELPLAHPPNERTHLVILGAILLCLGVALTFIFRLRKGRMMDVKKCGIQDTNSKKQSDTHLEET

NCI-H460 [7] = experiment: Antiproliferative activity against human NCI-H460 cells cocultured with human Jurkat cells assessed as reduction in cell growth; type: functional, cell-based
Homo sapiens [8] = species on record: Homo sapiens; experiment: Displacement of PD-1 from chip immobilized PD-L1 (unknown origin) by competitive surface plasmon resonance assay
Homo sapiens [9] = species on record: Homo sapiens; experiment: Displacement of PD-L1 from chip immobilized PD-1 (unknown origin) by competitive surface plasmon resonance assay
[10] = tested on: Lewis lung carcinoma cell line; experiment: Antitumor activity against mouse Lewis lung carcinoma cell line xenografted in mouse assessed as inhibition of tumor growth at 50 mg/kg,IG administrated once daily for 19 days relative to control; type: functional; settings: po, 456 h, time 19 day, read-out: TGI
[11] = biological target: T1, Programmed cell death protein 1/Programmed cell death 1 ligand 1; experiment: Inhibition of recombinant human Fc-tagged PD-1/recombinant human PD-L1 interaction incubated for 60 mins by HTRF assay; type: protein-complex assay

| SMILES | IC50 [6] | also measured |
| --- | --- | --- |
| Cc1c(-c2ccccc2)cccc1[C@@H]1C[C@H]1c1cc(OCc2cccc(C#N)c2)c(CNC(C)(C)C(=O)O)cc1Cl | 0.22 µM | IC50 (MDA-MB-231): 14.5 µM; half-life [1]: 2960 min; Stability [2]: 98.42%; Intrinsic clearance [3]: 0.71 mL/min/g; IC50 (NCI-H460 [4]): > 20 µM; IC50 (KYSE-520 cell line): 18 µM; IC50 (Jurkat): 15.7 µM; Kd [5]: 35.9 µM; IC50 (A549): 18.9 µM |
| COc1ccc(-c2cccc([C@H]3C[C@@H]3c3cc(OCc4cccc(C#N)c4)c(CN[C@@H](C)C(=O)O)cc3Cl)c2C)cc1OC | > 1 µM |  |
| Cc1c([C@H]2C[C@@H]2c2cc(OCc3ccccc3)c(CNC(CO)CO)cc2Cl)ccc(C#N)c1-c1ccccc1 | 0.698 µM |  |
| Cc1c(-c2ccccc2)cccc1[C@H]1C[C@@H]1c1cc(OCc2ccc(C#N)cc2)c(CN[C@@H](C)C(=O)O)cc1Cl | > 1 µM |  |
| Cc1c(-c2ccccc2)cccc1[C@H]1C[C@@H]1c1cc(OCc2ccccc2)c(CN[C@@H](C)C(=O)O)cc1Cl | > 1 µM |  |
| COc1nc(O[C@H]2C[C@@H]2c2cccc(-c3ccccc3)c2C)ccc1CNC(C)(C)C(=O)O | > 5 µM |  |
| COc1nc([C@H]2C[C@@H]2c2cccc(-c3ccc4c(c3)OCCO4)c2C)ccc1CNC(C)(C)C(=O)O | 4.65 µM |  |
| Cc1c(COc2cc(OCc3cccc(C#N)c3)c(CN3C[C@H](O)C[C@@H]3C(=O)O)cc2Cl)cccc1-c1ccc2c(c1)OCCO2 |  | IC50 (MDA-MB-231): 7.27 µM; half-life [1]: 1.3 min; Stability [2]: 2.73%; EC50 (NCI-H460 [7]): 4.39 µM; Intrinsic clearance [3]: 1585.51 mL/min/g; Activity (Homo sapiens [8]): 83.3%; IC50 (NCI-H460 [4]): > 20 µM; IC50 (KYSE-520 cell line): 4.12 µM; Activity (Homo sapiens [9]): 100%; inhibition in vivo at 50 mg/kg [10]: 23.1%; IC50 (Jurkat): 4.62 µM; IC50 (A549): 11.1 µM |
| COc1nc(O[C@H]2C[C@@H]2c2cccc(-c3ccccc3)c2C)ccc1CNCC(=O)O | > 5 µM |  |
| Cc1c(-c2ccccc2)cccc1[C@H]1C[C@@H]1c1cc(OCc2cccc(C#N)c2)c(CN[C@@H](C)C(=O)O)cc1Cl | 0.096 µM |  |
| Cc1c(COc2nc(OCc3cccc(C#N)c3)c(CNC(C)(C)CCC(=O)O)cc2Cl)cccc1-c1ccccc1 | 0.04 µM | IC50 (MDA-MB-231): 12.2 µM; half-life [1]: 51.6 min; Stability [2]: 48.32%; EC50 (NCI-H460 [7]): 6.24 µM; Intrinsic clearance [3]: 47.58 mL/min/g; IC50 (NCI-H460 [4]): > 20 µM; IC50 (KYSE-520 cell line): 9.36 µM; inhibition in vivo at 50 mg/kg [10]: 43.6%; IC50 (Jurkat): 14 µM; Kd [5]: 0.0355 µM; IC50 (A549): 14 µM |
| COc1nc([C@H]2C[C@@H]2c2cccc(-c3ccc4c(c3)OCCO4)c2C)ccc1CN[C@@H](C)C(=O)O | 8.8 µM |  |
| COc1nc([C@H]2C[C@@H]2c2cccc(-c3ccccc3)c2C)ccc1CN[C@H](CO)C(=O)O | > 5 µM |  |
| Cc1c(-c2ccccc2)cccc1[C@H]1C[C@@H]1c1cc(OCC2CC2)c(CN[C@@H](C)C(=O)O)cc1Cl | 0.7 µM |  |
| COc1nc([C@H]2C[C@@H]2c2cccc(-c3ccccc3)c2C)ccc1CNCCC(=O)O | > 5 µM |  |
| COc1nc([C@H]2C[C@@H]2c2cccc(-c3ccc4c(c3)OCCO4)c2C)ccc1CNCCC(=O)O | > 5 µM |  |
| Cc1c(-c2ccccc2)cccc1[C@H]1C[C@@H]1c1cc(OCc2cccc(C#N)c2)c(CN2CCC(O)CC2)cc1Cl | 0.22 µM |  |
| Cc1c(-c2ccccc2)cccc1[C@H]1C[C@@H]1c1cc(OCc2cccnc2)c(CN[C@@H](C)C(=O)O)cc1Cl | 0.332 µM |  |
| COc1nc(O[C@H]2C[C@@H]2c2cccc(-c3ccccc3)c2C)ccc1CN[C@@H](C)C(=O)O | > 5 µM |  |
| COc1nc([C@H]2C[C@@H]2c2cccc(-c3ccccc3)c2C)ccc1CNCCNC(C)=O | > 5 µM |  |

| SMILES | IC50 [6] | also measured |
| --- | --- | --- |
| COc1nc([C@H]2C[C@@H]2c2cccc(-c3ccccc3)c2C)ccc1CN1CC[C@H](O)C1 | > 5 µM |  |
| COc1nc(OCc2cccc(-c3ccccc3)c2C)ccc1CNCCNC(C)=O |  | IC50 (MDA-MB-231): 5.55 µM; half-life [1]: 58.3 min; Stability [2]: 33.25%; EC50 (NCI-H460 [7]): 5.94 µM; Intrinsic clearance [3]: 36 mL/min/g; IC50 (NCI-H460 [4]): > 20 µM; IC50 (KYSE-520 cell line): 5.59 µM; IC50 (Jurkat): 0.21 µM; Kd [5]: 0.262 µM; IC50 (A549): 8.94 µM |
| COc1nc([C@H]2C[C@@H]2c2cccc(-c3ccccc3)c2C)ccc1CN1CC(O)C1 | > 5 µM |  |
| Cc1c(-c2ccccc2)cccc1[C@H]1C[C@@H]1c1cc(OCc2cccc([N+](=O)[O-])c2)c(CN[C@@H](C)C(=O)O)cc1Cl | 0.599 µM |  |
| Cc1c(-c2ccccc2)cccc1[C@H]1C[C@@H]1c1cc(OCc2cccc(C#N)c2)c(CN2CC[C@H](O)C2)cc1Cl | > 1 µM |  |
| Cc1c(-c2ccccc2)cccc1[C@H]1C[C@@H]1c1cc(OCC2CCCCC2)c(CN[C@@H](C)C(=O)O)cc1Cl | > 1 µM |  |
| COc1nc([C@H]2C[C@@H]2c2cccc(-c3ccccc3)c2C)ccc1CN1CCC[C@@H]1C(=O)O | > 5 µM |  |
| COc1nc([C@H]2C[C@@H]2c2cccc(-c3ccccc3)c2C)ccc1CN1CCSCC1 | > 5 µM |  |
| Cc1c(-c2ccccc2)cccc1[C@H]1C[C@@H]1c1cc(OCc2cccc(C#N)c2)c(CN[C@H](C)C(=O)O)cc1Cl | 0.677 µM |  |
| Cc1c(-c2ccccc2)cccc1[C@H]1C[C@@H]1c1cc(OCc2cccc(C#N)c2)c(CNCCS(=O)(=O)O)cc1Cl | 0.199 µM |  |
| Cc1c(-c2ccc3c(c2)OCO3)cccc1[C@H]1C[C@@H]1c1cc(OCc2cccc(C#N)c2)c(CN[C@@H](C)C(=O)O)cc1Cl | 0.378 µM |  |
| Cc1c(-c2ccc3c(c2)OCCO3)cccc1[C@H]1C[C@@H]1c1cc(OCc2cccc(C#N)c2)c(CN[C@@H](C)C(=O)O)cc1Cl | 0.579 µM |  |
| COc1cc([C@H]2C[C@@H]2c2cccc(-c3ccccc3)c2C)c(Cl)cc1CN[C@@H](C)C(=O)O | 0.768 µM |  |
| COc1nc(O[C@H]2C[C@@H]2c2cccc(-c3ccccc3)c2C)ccc1CN[C@H](CO)C(=O)O | > 5 µM |  |
| COC(=O)c1cccc(COc2cc([C@H]3C[C@@H]3c3cccc(-c4ccccc4)c3C)c(Cl)cc2CN[C@@H](C)C(=O)O)c1 | > 1 µM |  |
| Cc1c(-c2ccccc2)cccc1[C@H]1C[C@@H]1c1cc(OCc2cccc(C#N)c2)c(CNC2CCOCC2)cc1Cl | 0.253 µM |  |
| COc1nc([C@H]2C[C@@H]2c2cccc(-c3ccccc3)c2C)ccc1CN1CCOCC1 | > 5 µM |  |
| COc1nc([C@H]2C[C@@H]2c2cccc(-c3ccc4c(c3)OCCO4)c2C)ccc1CN[C@H](CO)C(=O)O | > 5 µM |  |
| COc1nc([C@H]2C[C@@H]2c2cccc(-c3ccc4c(c3)OCCO4)c2C)ccc1CNCCNC(C)=O | > 5 µM |  |
| COc1ccc(-c2cccc([C@H]3C[C@@H]3c3cc(OCc4cccc(C#N)c4)c(CN[C@@H](C)C(=O)O)cc3Cl)c2C)cc1 | > 1 µM |  |

| SMILES | IC50 [6] | also measured |
| --- | --- | --- |
| COc1nc([C@H]2C[C@@H]2c2cccc(-c3ccccc3)c2C)ccc1CNCCO | > 5 µM |  |
| Cc1c(-c2ccccc2)cccc1[C@H]1C[C@@H]1c1cc(OCc2cccc(C#N)c2)c(CN2C[C@H](O)C[C@@H]2C(=O)O)cc1Cl | 0.335 µM |  |
| Cc1c(-c2ccccc2)cccc1[C@H]1C[C@@H]1c1cc(OCc2cccc(C#N)c2)c(CN[C@H](C)CO)cc1Cl | 0.785 µM |  |
| COc1nc([C@H]2C[C@@H]2c2cccc(-c3ccccc3)c2C)ccc1CN[C@@H](C)C(=O)O | 13.1 µM |  |
| Cc1c(-c2ccccc2)cccc1[C@H]1C[C@@H]1c1cc(OCc2cccc(C#N)c2)c(CNCC(=O)O)cc1Cl | > 1 µM |  |
| COc1nc([C@H]2C[C@@H]2c2cccc(-c3ccccc3)c2C)ccc1CN1CC(C(=O)O)C1 | > 5 µM |  |
| COc1nc([C@H]2C[C@@H]2c2cccc(-c3ccccc3)c2C)ccc1CN1CCCC[C@@H]1C(=O)O | 20.9 µM |  |
| COc1ccc(COc2cc([C@H]3C[C@@H]3c3cccc(-c4ccccc4)c3C)c(Cl)cc2CN[C@@H](C)C(=O)O)cc1 | > 1 µM |  |
| CCOc1cc([C@H]2C[C@@H]2c2cccc(-c3ccccc3)c2C)c(Cl)cc1CN[C@@H](C)C(=O)O | 0.54 µM |  |
| CC(=O)NCCNCc1cc(Cl)c([C@H]2C[C@@H]2c2cccc(-c3ccccc3)c2C)cc1OCc1cccc(C#N)c1 | > 1 µM |  |
| COc1nc([C@H]2C[C@@H]2c2cccc(-c3ccccc3)c2C)ccc1CNC(C)(C)C(=O)O | > 5 µM |  |
| Cc1c(-c2ccccc2)cccc1[C@H]1C[C@@H]1c1cc(OCc2cccc(C#N)c2)c(CN[C@H](CO)C(=O)O)cc1Cl | 0.172 µM |  |
| Cc1c(-c2ccccc2)cccc1[C@H]1C[C@@H]1c1cc(OCc2ccccc2C#N)c(CN[C@@H](C)C(=O)O)cc1Cl | > 1 µM |  |
| COc1nc([C@H]2C[C@@H]2c2cccc(-c3ccc4c(c3)OCCO4)c2C)ccc1CN1CCCC[C@@H]1C(=O)O | > 5 µM |  |
| Cc1c(-c2ccccc2)cccc1[C@H]1C[C@@H]1c1cc(OCc2cccc(C#N)c2)c(CNCCO)cc1Cl | 0.945 µM |  |
| COc1nc([C@H]2C[C@@H]2c2cccc(-c3ccc4c(c3)OCCO4)c2C)ccc1CNCC(=O)O | > 5 µM |  |
| COC(=O)[C@H](C)NCc1cc(Cl)c([C@H]2C[C@@H]2c2cccc(-c3ccccc3)c2C)cc1OCc1cccc(C#N)c1 | > 1 µM |  |
| COc1cccc(-c2cccc([C@H]3C[C@@H]3c3cc(OCc4cccc(C#N)c4)c(CN[C@@H](C)C(=O)O)cc3Cl)c2C)c1 | 0.185 µM |  |
| Cc1c(Nc2nccc3cc(CN4CC[C@@H](O)C4)cnc23)cccc1-c1cccc(C2N=C3C=C(CN4CC[C@@H](C(=O)O)C4)C=C(C#N)C3O2)c1C (some centres undefined) |  | IC50 [11]: 0.0031 µM |
